How the values were obtained:
DNA = assay: Binding affinity to calf thymus DNA assessed as change in melting temperature at a compound to DNA molar ratio of 1:5 at pH 7 by thermal denaturation assay; type: nucleic-acid assay; conditions: Bos taurus
[1] = biological target: T1, Type II restriction enzyme BamHI (Bacillus amyloliquefaciens) (UniProt P23940); assay: Inhibition of Bacillus amyloliquefaciens BamH1-mediated pBR322 cleavage after 16 hrs by RED100-restriction endonuclease digestion assay
T1 sequence (whole entry): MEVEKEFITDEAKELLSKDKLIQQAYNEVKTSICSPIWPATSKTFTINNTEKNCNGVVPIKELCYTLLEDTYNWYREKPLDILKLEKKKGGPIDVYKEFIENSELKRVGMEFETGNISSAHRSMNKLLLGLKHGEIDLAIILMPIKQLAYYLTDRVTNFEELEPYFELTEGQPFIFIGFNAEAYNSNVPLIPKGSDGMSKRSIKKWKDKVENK

| SMILES | ΔTm (DNA) [°C] | Activity [1] |
| --- | --- | --- |
| COc1cc2c(cc1OCCCN1CCN(CCCOc3cc4c(cc3OC)C(=O)N3CC(=C(F)F)C[C@H]3C=N4)CC1)N=C[C@@H]1CC(=C(F)F)CN1C2=O | 28.9 | Dose-dependent effect |
| COc1cc2c(cc1OCCCCOc1cc3c(cc1OC)C(=O)N1CC(F)(F)C[C@H]1C=N3)N=C[C@@H]1CC(F)(F)CN1C2=O | 4.2 |  |
| COc1cc2c(cc1OCCCOc1cc3c(cc1OC)C(=O)N1CCC[C@H]1C=N3)N=C[C@@H]1CCCN1C2=O | 10.2 |  |
| COc1cc2c(cc1OCCCCCOc1cc3c(cc1OC)C(=O)N1CC(F)(F)C[C@H]1C=N3)N=C[C@@H]1CC(F)(F)CN1C2=O | 18.9 |  |
| COc1cc2c(cc1OCCCCN1CCN(CCCCOc3cc4c(cc3OC)C(=O)N3CC(F)(F)C[C@H]3C=N4)CC1)N=C[C@@H]1CC(F)(F)CN1C2=O | 14 |  |

Reference: ChEMBL document CHEMBL1152723, “Remarkable enhancement in the DNA-binding ability of C2-fluoro substituted pyrrolo[2,1-c][1,4]benzodiazepines and their anticancer potential” (2009)
